Results reported in patent US7223733B2, “Modulation of TRIP-Br function and method of treating proliferative disorders” (National University of Singapore, priority 2004, dated 2007).
Where no end group is shown, it is not given here. [invdT] = inverted (3'-3') thymidine

Tests used:
[1] = test system: WI-38 cells; assay: Colony formation assay of WI-38 cells (crystal violet); format: cell-based, human; conditions: WI-38, serum-induced, 72 h
Method: DNA enzyme transfection. WI-38 cells were rendered quiescent by cultivation in serum-free medium for 72 h before being transfected with DNA enzyme (0.1 μM) using Superfect as reported previously (Santiago, F. S., et al. Nat Med 5, 1264-1269 (1999)) in accordance to manufacturer's recommendations (Qiagen).
Cell proliferation assays. For the BrdU incorporation assays, growth-quiescent WI-38 cells in 96-well dishes were transfected with DNA enzyme and/or 100 ng of pCMV/E2F1, pCMV/DP1, pRSV/Cyclin E, or pCMV/Cdk2 and then exposed to Bromodeoxyuridine (BrdU, 100 μM) in the presence or absence of 10% FBS for 20 h. Bromodeoxyuridine (BrdU) incorporation was monitored with a calorimetric ELISA assay using a cell proliferation kit according to manufacturer's recommendations (Boehringer Mannheim). For manual cell count, growth-quiescent WI-38 cells in 24-well dishes were transfected with DNA enzyme and then exposed to 10% FBS for 72 h. The cells were rinsed with PBS, pH 7.4, and trypsinized, and 10 μl of cell suspension was taken from each sample and mixed with equal volume of trypan blue stain (Sigma, 0.4% w/v in 1×PBS). The number of unstained cells was enumerated manually using a hemocytometer. […] Cells were stained in situ with crystal violet (0.75% w/v hexamethyl-p-rosaniline chloride [SIGMA], 50% ethanol, 1.75% w/v paraformaldehyde, 0.25% w/v NaCl) for 10 min, and then rinsed thoroughly with deionized water to remove excess stains.
FIG. 12: (A) E-Br1 or E-Br2 inhibits cell proliferation. Sub-confluent WI-38 cells were serum-starved for 72 h. Following DNA enzyme transfection, the cultures were re-stimulated with serum and allowed to proliferate. After 72 h, cells were harvested for viable cell count analysis. 10 μl of cell suspension from each sample was mixed with equal volume of 0.4% trypan blue stain. The number of unstained cells was enumerated manually using a hemocytometer. Data represent the average of at least two independent experiments. […] (B) E-Br1 or E-Br2 suppresses colony formation. Sub-confluent WI-38 cells were serum-starved for 72 h. […]

[2] = test system: Caski (cervical carcinoma); assay: Anti-proliferative phenotypes in Caski cells; format: cell-based; conditions: data not shown
[3] = test system: cyclins A, D and E; assay: Western blot of cyclins A, D and E in U2OS cells exposed to decoy peptides; format: cell-based, human; conditions: U2OS, 5, 10 or 20 μM, 48 h
Method: Denaturing SDS-PAGE and western blotting. Proteins from whole cell lysate and IP complexes were separated using standard denaturing polyacrylamide gel electrophoresis as described previously (Hsu, S. I. H., et al. EMBO J 20, 2273-2285 (2001)).
FIG. 8: The role(s) of the TRIP-Br integrator function in cyclin E regulation. (A) Western blot analysis of the expression of cyclins A, D and E in whole cell extracts derived from U2OS cells exposed to 5, 10 or 20 μM of decoy peptides for 48 h. Cdk2 served as a loading control; (B) Dosage-dependent effects of decoy peptides on Fbxw7 expression. U2OS cells exposed to 5, 10 or 20 μM of decoy peptides were analyzed for Fbxw7 mRNA transcript levels by semi-quantitative RT-PCR. H-actin was co-amplified as an internal control; (C) cyclin-E and Fbxw7 expression was analyzed by semi-quantitative RT-PCR using total RNA from sub-confluent U2OS ER-E2F-1 cells grown with or without OHT and/or cycloheximide (CHX) for 2 h as indicated. H-actin was included as an internal control.

[4] = test system: KRIP-1-associated co-activating function on GAL4-TRIP-Br transcriptional activity; assay: GAL4-TRIP-Br/KRIP-1 luciferase reporter assay in U2OS cells; format: cell-based, human; conditions: 50 μM decoy peptide
Method: DNA Transfection and Sequential β-Galactosidase/Luciferase Assay. For luciferase reporter assays, U2OS cells were cultured in 6-well dishes and transfected 24 h later with various reporter plasmids by the calcium precipitation method as previously described (Martin, K., et al. Nature 375, 691-694 (1995)). 24 h following precipitate removal, cells were exposed for 5 h to either vehicle (0.5% DMSO) or 50 μM of decoy peptide, prior to harvesting. Cells were scraped in 200 μl of lysis buffer and a single 10 μl aliquot of lysate was immediately used for sequential measurement of β-galactosidase and luciferase activity using the Dual Light System (Tropix). For protein overexpression experiments, U2OS cells were cultured in 6-well plates at a density of 1×10^5 cells/well and transfected 24 h later with Superfect reagent (QIAGEN).
FIG. 1: TRIP-Br decoy peptides antagonize KRIP-1/TRIP-Br PHD-bromodomain interactions. […] GAL4-KRIP-1 was specifically immunoprecipitated by the agarose-conjugated anti-GAL4 antibody (Lanes 3-5 & 7–10) but not by the non-specific control anti-cyclin E antibody (Lane 6); (B) Antagonism of PHD-bromodomain interactions in vivo. U2OS cells were transiently transfected with 0.4 μg of the indicated GAL4 expression constructs and 1.2 μg of pMT3A/KRIP-1, along with 0.4 μg of the minimal luciferase reporter pG5-GL3 and 0.1 μg of the control reporter pCMV/β-gal. […]

[5] = test system: CNE2 (nasal pharyngeal carcinoma); assay: Anti-proliferative phenotypes in CNE2 cells; format: cell-based, human; conditions: data not shown
[6] = test system: Geminin; assay: Protein decay analysis of Geminin in U2OS cells (cycloheximide); format: cell-based, human; conditions: for Geminin steady state levels at 5-h post-CHX treatment: cycloheximide; for Geminin protein decay kinetics: cycloheximide 20 μg/ml, 0-5 h
Method: Protein decay analysis. Transfected or peptide-treated cells were exposed to 20 μg/ml cycloheximide (CHX). Whole cell lysates were prepared from the treated cells at 0, 1, 2, 3, 4 or 5-h post-CHX treatment for Western blot analysis. FIG. 7: Cell cycle protein expression profile and protein decay analysis. (A) Protein expression profile of U2OS cells released from nocodazole arrest in the absence or presence of decoy peptide treatment. Protein expression of various cyclins and Cdks was assessed by Western blotting using whole cell lysates from synchronized U2OS cells at 4, 8, 12, 16, 20 and 24 h after release. Coomassie-stained proteins served as loading controls; (B) U2OS cells transfected with vector backbone (vehicle) or pRc/cyclin E and pCMV/Cdk2 (1 μg each), were arrested at the G2/M boundary by exposure to nocodazole (75 ng/ml) and then released to re-enter the cell cycle. Protein expression of cyclin E and Geminin was assessed using whole cell lysates from synchronized U2OS cells at 0, 4, 8, 12, 16 and 20 h after release; (C) Protein decay analysis of Geminin expression in the absence or presence of cyclin E/Cdk2 over-expression (left panel) or in the absence or presence of decoy peptide treatment (right panel) by Western blotting (WB). Coomassie stained proteins served as the loading control (C).

Substance | colony forming potential [1] | response of Caski cells [2] | cyclin E protein level [3] | protein levels of cyclin D1 and cyclin A2 [3] | KRIP-1-associated co-activating function on GAL4-TRIP-Br transcriptional activity [4] | response of CNE2 cells [5] | Geminin steady state levels at 5-h post-CHX treatment [6] | Geminin protein decay kinetics [6]
5′-T TGCTCAGCAGGCTAGCTACAACGACTTGCTCA-3′ (DNA TTGCTCAGCAGGCTAGCTACAACGACTTGCTCA; DNA, 3' [invdT], backbone not given here) [E-Br1] | significantly reduced colony forming potential | – | – | – | – | – | – | –
ERQIKIWFQNRRMKWKKATGCLLDDGLEGLFEDID (ERQIKIWFQNRRMKWKKATGCLLDDGLEGLFEDID-NH2) [*Br1] | – | in manners similar to those exhibited by U2OS cells | dose-dependent accumulation of cyclin E protein | without affecting the protein levels | complete abolishment | in manners similar to those exhibited by U2OS cells | remained persistently high | significantly slower decay rate
ERQIKIWFQNRRMKWKKTGFLTDLTLDDILFADID (ERQIKIWFQNRRMKWKKTGFLTDLTLDDILFADID-NH2) [*Br2] | – | in manners similar to those exhibited by U2OS cells | dose-dependent accumulation of cyclin E protein | without affecting the protein levels | complete abolishment | in manners similar to those exhibited by U2OS cells | remained persistently high | significantly slower decay rate
5′-T TACCCAACAGGCTAGCTACAACGAATATCACA-3′ (DNA TTACCCAACAGGCTAGCTACAACGAATATCACA; DNA, 3' [invdT], backbone not given here) [E-Br2] | significantly reduced colony forming potential | – | – | – | – | – | – | –
